Key:
A549 cells [1] = format: cell-based, human; set-up: decrease of cell viability: dose or concentration left out as unconfirmed
Experimental: Cells were grown in 96-well plates at a density of 2.0 ×10^4 cells/well. Cells were treated with controls or QT/AM-21 at 50, 100, or 200 nM, with and without PTX (4.1 nM) dissolved in a small volume of 1:1 Cremophor EL:ethanol solution. Relative cell viability was quantified by CellTiter 96® AQueous One Solution Cell Proliferation Assay (Promega, Madison, Wis., USA) according to the manufacturer's protocol 72 h following the start of treatment. Briefly, 20 μL MTS assay solution was added to each well and the plates were incubated for 1 h. The absorbance at 490 nm was recorded to determine cytotoxicity relative to the untreated control.
A549 cells were cultured as in Example 2, and treated with either QT/AM-21 (5′-U*C*A*ACAUCAGUCUGAUAAG*C*U*A-3′, SEQ ID NO:3) at three different concentrations (50 nM, 100 nM or 200 nM), paclitaxel (PTX) or a combination of PTX and QT/AM-21 (PTX/50 nM QT/AM-21; PTX/QT/100 nM-21; TX/200 nM QT/AM-21). (Dosage of PXT was 4nM).
The cells were incubated with the drugs for 72 h; after which the cells were harvested and tested for cytotoxicity and viability using MTS assay kit by Promega. Absorbance scanning was done at 490 nm to determine relative cell viabilities.

A549 xenograft = assay: Combination therapy (QT/AM-21 and PTX) in A549 xenograft; format: in vivo, mice; settings: 1 mg/kg QT/AM-21 tail vein and/or 3 mg/kg PTX i.p., start ~80 mm^3, 4 weeks
Experimental: Mice were treated by tail vein injection with saline control or 1 mg/kg QT/AM-21. Mice receiving PTX treatment as monotherapy or combination therapy received PTX dissolved in 1:1 Cremephor EL:ethanol solution at a dose of 3 mg/kg via intraperitoneal injection. Mice were dosed on days 1, 3, 5, 8, 15, 22, 29 and were monitored over a 4 week period. 48 h following the last dose, mice were euthanized and tumors were collected for gene regulation study.

miR-21 [2] = assay: In vivo gene regulation in A549 xenograft tumors (qRT-PCR); set-up: species or system mice; settings: 1 mg/kg QT/AM-21 and/or 3 mg/kg PTX
Experimental: Female athymic nude mice (n=5 per group) were implanted with 1.0×10^6 A549 cells/mouse and treatment began when tumors reached a size of ≥100 mm^3. Mice were treated by tail vein injection with saline control or 1 mg/kg QT/AM-21. Mice receiving PTX treatment as monotherapy or combination therapy received PTX dissolved in 1:1 Cremephor EL:ethanol solution at a dose of 3 mg/kg via intraperitoneal injection. Mice were dosed on days 1, 3, 5, 8, 15, 22, 29 and were monitored over a 4 week period. 48 h following the last dose, mice were euthanized and tumors were collected for gene regulation study.
Tumors were harvested and placed in TRIzol reagent (Life Technologies) following treatment and homogenized. mRNA was isolated per the manufacturer's protocol. qRT-PCR was then completed according to the same procedure as outlined in the in vitro section.

miR-21 [3] = assay: In vitro gene regulation in A549 cells (qRT-PCR of miR-21 and its target genes); format: cell-based, human; settings: 100 nM AM-21, mRNA relative to GAPDH
Experimental: Cells were grown in 24-well plates at a density of 7.0×10^5 cells/well 24 h prior to transfection. QT/AM-21 of varying lipid composition or QT/negative control (NC) were administered at 50 nM in the presence of 20% serum containing media to determine the optimal QT composition. […] Cells were incubated at 37° C. with transfection media for 4 h and then washed three times with PBS. Fresh complete cell culture media was added and the cells were incubated at 37° C. for an additional 44 h. RNA was isolated from cells by RNeasy 96 kit (Qiagen, Valencia, Calif., USA). qRT-PCR was conducted with Taqman® MicroRNA Assay (Life Technologies) or EXPRESS One-Step Superscript® qRT-PCR kit (Life Technologies) on an Applied Biosystems StepOnePlus™ RT-PCR system (Life Technologies). The relative amount of […] was calculated and compared according to the 2^−ΔΔCt method.
Lung cancer A549 cells (human lung adenocarcinoma epithelial cell line) were cultured in vitro as standard cell culture. Cells were cultured in RPMI 1640 media supplemented with 10% FBS and 1% antibiotics/antimycotics in a 5% CO2 atmosphere at 37° C. […]
RNA was extracted by TRIzol reagent per manufacturer's protocol. cDNA was generated by Maxima First Strand cDNA synthesis kit per manufacture's protocol. […] RECK and PTEN mRNA levels were measured relative to GAPDH.

A549 cells [4] = assay: Matrigel invasion assay; format: cell-based, human; settings: A549, QT lipids or AM-21 alone, 48 h
Experimental: Matrigel (BD Biosciences, San Jose, Calif., USA) was combined with serum-free RPMI 1640 culture media in a 1:1 ratio. 70 μL of gel was added to each well insert of a 24-well plate. The gel was allowed to set for 1 h at 37° C. A549 cells were seeded at […] in a volume of 100 μL/well on top of the gel in the insert. Transfection media containing various formulations or controls at 2×concentration in a 100 μL volume were added to the top of the well inserts. 500 μL 10% fetal bovine supplemented media was added as a chemoattractant below the transwell insert. The plate was incubated at 37° C. for 48 h. Following the incubation period, cells remaining in the top of the well inserts were removed with a cotton swab. Well inserts were rinsed with PBS and placed in 500 uL 0.25% trypsin solution for 1 h at 37° C. Detached cells were counted on a hemocytometer.
A matrigel invasion assay was also performed after 48 hour treatment, as follows: Chilled Matrigel was combined with chilled serum-free RPMI 1640 culture media in a 1:1 ratio. 70 uL of gel was added to each well insert of a 24-well plate. The gel was allowed to set for 1 hour at 37° C. A549 cells were seeded at 75,000 cells/well in a volume of 100 uL/well on top of the gel. […] Detached cells were counted on a hemocytometer.

A549 cells [5] = assay: Migration assay (scratch wound healing); format: cell-based, human; settings: A549, QT lipids or AM-21 (200 nM) alone, 48 h
Experimental: A wound healing model was conducted to examine the migratory ability of A549 cells following treatment. A549 cells were plated at a density of 6.0×10^5 cells/well in a 33 mm petri dish 24 h prior to transfection. A scratch wound across the dish was made using a 10 μL pipet tip immediately before treatment. Culture media was removed and replaced with transfection media containing QT/AM-21 or appropriate controls diluted in complete media. Cells were allowed to proliferate at 37° C. for 48 h. Distances between edges of the wound were measured on a Nikon E800 microscope (Nikon, Tokyo, Japan) and SPOT Advanced Imaging Software (v5.0, Diagnostic Instruments Inc., Sterling Heights, Mich., USA).
A549 cells were cultured following standard culture procedure and incubated with QT/AM-21 (5′-U*C*A*ACAUCAGUCUGAUAAG*C*U*A-3′, SEQ ID NO:3) at three different concentrations (50 nM, 100 nM and 200 nM), or free, unformulated AM-21 (200 nM) for 48 hours. The untreated cells and cells treated with empty “QTsome™” lipid nanoparticle formulation were used as control. The migration of tumor cells was determined.

Compound | cells still alive compared to untreated control (A549 cells [1]; A549, PTX alone (4 nM), 72 h, MTS) | decrease of cell viability (A549 cells [1]; human, 72 h) | tumor volume at end of study (A549 xenograft) | upregulation of DDAH1 and PTEN in tumors (miR-21 [2]) | DDAH1 upregulation in tumors (miR-21 [2]; 48 h after last dose) | PTEN upregulation in tumors (miR-21 [2]; 48 h after last dose) | expression of RECK compared to untreated control A549 cells (miR-21 [3]) | cell invasion (A549 cells [4]) | cell migration in the wound region (A549 cells [5]) | change of cell viability on addition to PTX (A549 cells [1]; A549, free AM-21 or QT lipids added to PTX, MTS)
CC(=O)O[C@H]1C(=O)[C@@]2(C)[C@H]([C@H](OC(=O)c3ccccc3)[C@]3(O)C[C@H](OC(=O)[C@H](O)[C@@H](NC(=O)c4ccccc4)c4ccccc4)C(C)=C1C3(C)C)[C@]1(OC(C)=O)CO[C@@H]1C[C@@H]2O [PTX, Paclitaxel] | ~65% | 40% | 246.4 mm^3 | moderate upregulation | 1.7 fold | 1.5 fold | – | – | – | –
u*c*a*acaucagucugauaag*c*u*a (UCAACAUCAGUCUGAUAAGCUA; linkages s3 o15 s3 (s phosphorothioate, o phosphodiester), sugars by position and methylation of C not given here; further chemistry not fully specified) [AM-21] | – | – | – | – | – | – | upregulated | did not significantly retard cell invasion | did not confer significant decreases in cell migration | did not result in significant decreases in cell viability
